The target in this experiment is T1, ZnT1 binding to GluN2A C-terminal peptide sequences (Mus musculus, UniProt Q60738).
T1 construct: made in house; peptides: Fmoc spot synthesis on nitrocellulose
T1 sequence (Q60738 1-503): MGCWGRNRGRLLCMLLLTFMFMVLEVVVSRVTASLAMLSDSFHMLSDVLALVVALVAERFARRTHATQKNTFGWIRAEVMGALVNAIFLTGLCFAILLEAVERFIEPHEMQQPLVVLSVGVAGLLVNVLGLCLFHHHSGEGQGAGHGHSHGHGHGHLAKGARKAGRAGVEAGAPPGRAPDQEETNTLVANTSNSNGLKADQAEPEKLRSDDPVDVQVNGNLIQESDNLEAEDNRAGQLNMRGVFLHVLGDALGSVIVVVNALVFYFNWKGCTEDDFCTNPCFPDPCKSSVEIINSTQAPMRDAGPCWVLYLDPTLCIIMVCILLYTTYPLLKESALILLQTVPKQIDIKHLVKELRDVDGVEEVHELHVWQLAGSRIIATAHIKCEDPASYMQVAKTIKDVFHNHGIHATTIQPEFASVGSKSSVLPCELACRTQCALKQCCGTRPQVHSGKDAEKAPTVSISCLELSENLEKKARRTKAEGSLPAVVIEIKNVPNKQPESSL
Kind of experiment: Peptide spot array repeated in the presence of N2AZ or scN2AZ. As to conditions: 100 μM, compared to scN2AZ control. The protocol:
FIG. 2: N2AZ reduces ZnT1 binding to GluN2A C-terminal peptide sequences. Quantification of peptide spot arrays of GluN2A C-terminus region (residues 1390-1464) using the same peptide segments as FIG. 1B (Peptides 1-61 correspond to fragments of SEQ ID NO: 21, as listed in Table 1). […] Mean±SEM (n=4). (Inset) Representative peptide spot-array in scN2AZ (top) and N2AZ (bottom).
Far-Western protein-binding affinity assays were performed as previously described (Brittain et al., 2011; Yeh et al., 2017) (Moutal et al., 2017). Peptide spot arrays (15 mers) spanning the proximal C-terminus residues 1390-1464 of mouse GluN2A (Uniprot# P35436) in overlapping 1 aa steps were constructed using the Spots-synthesis method. Standard 9-fluorenylmethoxy carbonyl (Fmoc) chemistry was used to synthesize the peptides and spot them onto nitrocellulose membranes pre-derivatized with a polyethylene glycerol spacer (Intavis). […] Finally, the membrane was incubated in secondary antibody for 45 minutes, washed 3 times for 5 minutes in TBST, and visualized by infrared fluorescence (Li-Cor). […]
To study the effect of ZnT1 on NMDAR modulation, a peptide was designed to disrupt the ZnT1-GluN2A interaction. […] Next, the peptide spot arrays were probed with flag-tagged ZnT1-enriched cell lysates and ZnT1 binding was visualized and quantified with immunofluorescence against the flag tag (FIG. 1A). […]

For NDSYLRSSL [Peptide N2AZ], the “ZnT1 binding to the spot array in the presence of peptide” value is given as “significantly reduced”.

These data come from US20230034660A1, “PEPTIDES THAT ENHANCE NMDA RECEPTOR FUNCTION AND USE THEREOF” (University of Pittsburgh - Of the Commonwealth System of …, priority 2019, published 2023).
